ChEMBL document CHEMBL4627276, “CT2-3, a novel magnolol analogue suppresses NSCLC cells through triggering cell cycle arrest and apoptosis” (Bioorg Med Chem, 2020)
The source made the active and inactive calls. The rule behind the calls is not given here.

Legend:
A549 [1] = test: Antiproliferative activity against human A549 cells assessed as inhibition of cell viability at 40 uM incubated for 24 hrs by CCK-8 assay; format: functional, cell-based
NCI-H460 [2] = test: Antiproliferative activity against human H460 cells assessed as inhibition of cell viability at 40 uM incubated for 24 hrs by CCK-8 assay; format: functional, cell-based
NCI-H460 [3] = test: Antiproliferative activity against human H460 cells assessed as inhibition of cell viability incubated for 24 hrs by CCK-8 assay; format: functional, cell-based; conditions: for IC50: NCI-H460, 24 h
A549 [4] = test: Inhibition of colony formation in human A549 cells at 20 uM incubated for 48 hrs and measured after 10 days culturing in normal media by Giemsa staining based inverted microscopy; format: functional, cell-based
A549 [5] = test: Antiproliferative activity against human A549 cells assessed as inhibition of cell viability incubated for 24 hrs by CCK-8 assay; format: functional, cell-based; conditions: for IC50: A549, 24 h
NCI-H460 [6] = test: Inhibition of colony formation in human H460 cells at 20 uM incubated for 48 hrs and measured after 10 days culturing in normal media by Giemsa staining based inverted microscopy; format: functional, cell-based
NCI-H460 [7] = test: Downregulation of CDK4 mRNA expression in human H460 cells at 40 uM after 24 hrs by RT-qPCR analysis; format: functional, cell-based
NCI-H460 [8] = test: Induction of apoptosis in human H460 cells assessed as early apoptotic cells at 40 uM incubated for 24 hrs by Annexin V-FITC/propidium iodide staining based flow cytometric method (reference value: 2.4%); format: functional
NCI-H460 [9] = test: Induction of apoptosis in human H460 cells assessed as necrotic cell at 20 uM incubated for 24 hrs by Annexin V-FITC/propidium iodide staining based flow cytometric method (reference value: 2.1%); format: functional
NCI-H460 [10] = test: Downregulation of TOP2B mRNA expression in human H460 cells incubated for 24 hrs by RT-qPCR analysis; format: functional, cell-based
NCI-H460 [11] = test: Downregulation of TOP3B mRNA expression in human H460 cells incubated for 24 hrs by RT-qPCR analysis; format: functional, cell-based
A549 [12] = test: Induction of apoptosis in human A549 cells assessed as live cells at 40 uM incubated for 24 hrs by Annexin V-FITC/propidium iodide staining based flow cytometric method (reference value: 95.6%); format: functional
[13] = Cytotoxicity against mouse MFF cells assessed as inhibition of cell viability after 24 hrs; format: cell-based
NCI-H460 [14] = test: Antiproliferative activity against human H460 cells assessed as cell viability at 40 uM incubated for 24 hrs by CCK-8 assay; format: functional; conditions: NCI-H460, 24 h, read-out: Activity
NCI-H460 [15] = test: Downregulation of TOP3B protein expression in human H460 cells at 40 uM incubated for 24 hrs by western blot analysis; format: functional, cell-based
A549 [16] = test: Induction of ROS generation in human A549 cells incubated for 24 hrs by DCFH-DA staining based fluorescence microscopy; format: functional, cell-based
A549 [17] = test: Induction of apoptosis in human A549 cells assessed as late apoptotic cells at 20 uM incubated for 24 hrs by Annexin V-FITC/propidium iodide staining based flow cytometric method (reference value: 1.7%); format: functional
A549 [18] = test: Induction of apoptosis in human A549 cells assessed as early apoptotic cells at 40 uM incubated for 24 hrs by Annexin V-FITC/propidium iodide staining based flow cytometric method (reference value: 0.3%); format: functional
NCI-H460 [19] = test: Downregulation of c-Myc mRNA expression level in human H460 cells incubated for 24 hrs by RT-qPCR analysis; format: functional, cell-based
NCI-H460 [20] = test: Cell cycle arrest in human H460 cells assessed as accumulation of cells at G1 phase at 40 uM incubated for 24 hrs by PI staining based flow cytometric analysis; format: functional
A549 [21] = test: Induction of apoptosis in human A549 cells assessed as necrotic cell at 20 uM incubated for 24 hrs by Annexin V-FITC/propidium iodide staining based flow cytometric method (reference value: 2.4%); format: functional
A549 [22] = test: Induction of apoptosis in human A549 cells assessed as live cells at 20 uM incubated for 24 hrs by Annexin V-FITC/propidium iodide staining based flow cytometric method (reference value: 95.6%); format: functional
A549 [23] = test: Induction of apoptosis in human A549 cells assessed as necrotic cell at 40 uM incubated for 24 hrs by Annexin V-FITC/propidium iodide staining based flow cytometric method (reference value: 2.4%); format: functional
NCI-H460 [24] = test: Downregulation of TOP2B protein expression in human H460 cells at 40 uM incubated for 24 hrs by western blot analysis; format: functional, cell-based
NCI-H460 [25] = test: Induction of apoptosis in human H460 cells assessed as late apoptotic cells at 20 uM incubated for 24 hrs by Annexin V-FITC/propidium iodide staining based flow cytometric method (reference value: 4.3%); format: functional
NCI-H460 [26] = test: Induction of apoptosis in human H460 cells assessed as necrotic cell at 40 uM incubated for 24 hrs by Annexin V-FITC/propidium iodide staining based flow cytometric method (reference value: 2.1%); format: functional
NCI-H460 [27] = test: Downregulation of Cyclin D1 mRNA expression in human H460 cells at 40 uM after 24 hrs by RT-qPCR analysis; format: functional, cell-based
NCI-H460 [28] = test: Downregulation of c-Myc protein expression level in human H460 cells at 40 uM incubated for 24 hrs by western blot analysis; format: functional, cell-based
NCI-H460 [29] = test: Downregulation of CDK6 mRNA expression in human H460 cells at 40 uM after 24 hrs by RT-qPCR analysis; format: functional, cell-based
NCI-H460 [30] = test: Induction of apoptosis in human H460 cells assessed as live cells at 40 uM incubated for 24 hrs by Annexin V-FITC/propidium iodide staining based flow cytometric method (reference value: 91.2%); format: functional
A549 [31] = test: Induction of apoptosis in human A549 cells assessed as early apoptotic cells at 20 uM incubated for 24 hrs by Annexin V-FITC/propidium iodide staining based flow cytometric method (reference value: 0.3%); format: functional
A549 [32] = test: Induction of apoptosis in human A549 cells assessed as late apoptotic cells at 40 uM incubated for 24 hrs by Annexin V-FITC/propidium iodide staining based flow cytometric method (reference value: 1.7%); format: functional
NCI-H460 [33] = test: Induction of apoptosis in human H460 cells assessed as live cells at 20 uM incubated for 24 hrs by Annexin V-FITC/propidium iodide staining based flow cytometric method (reference value: 91.2%); format: functional
NCI-H460 [34] = test: Induction of ROS generation in human H460 cells incubated for 24 hrs by DCFH-DA staining based fluorescence microscopy; format: functional, cell-based
A549 [35] = test: Antiproliferative activity against human A549 cells assessed as cell viability at 40 uM incubated for 24 hrs by CCK-8 assay; format: functional; conditions: A549, 24 h, read-out: Activity
NCI-H460 [36] = test: Induction of apoptosis in human H460 cells assessed as early apoptotic cells at 20 uM incubated for 24 hrs by Annexin V-FITC/propidium iodide staining based flow cytometric method (reference value: 2.4%); format: functional
NCI-H460 [37] = test: Induction of apoptosis in human H460 cells assessed as late apoptotic cells at 40 uM incubated for 24 hrs by Annexin V-FITC/propidium iodide staining based flow cytometric method (reference value: 4.3%); format: functional

For C=CCc1ccc(O)c(-c2cc(CC=C)ccc2OCCSCCCCN2C(=O)c3ccccc3C2=O)c1, which Activity (A549 [1]) is on record?
Its Activity is “inactive”.

And the Activity (NCI-H460 [2])?
Its Activity is “inactive”.

With C=CCc1ccc(O)c(-c2cc(CC=C)ccc2OCCS(=O)(=O)CCCCN2C(=O)c3ccccc3C2=O)c1 as the molecule, how does the Activity (A549 [1]) read?
Its Activity is “inactive”.

What about the Activity (NCI-H460 [2]) of the same molecule?
Its Activity is “inactive”.

With C=CCc1ccc(O)c(-c2cc(CC=C)ccc2O)c1 [MAGNOLOL] as the molecule, how does the IC50 (NCI-H460 [3]) read?
The IC50 was over 80 µM.

What about the inhibition (A549 [4]) of the same molecule?
Its inhibition is “inactive”.

And the Activity (A549 [1])?
Its Activity is “inactive”.

And the IC50 (A549 [5])?
Its IC50 is over 80 µM.

What about the inhibition (NCI-H460 [6]) of the same molecule?
Its inhibition is “inactive”.

And the Activity (NCI-H460 [2])?
Its Activity is “inactive”.

With C=CCc1ccc(O)c(-c2cc(CC=C)ccc2OCC[S+]([O-])CCCCN2C(=O)c3ccccc3C2=O)c1 (configuration not stated) as the molecule, how does the inhibition (NCI-H460 [7]) read?
Its inhibition is “Active”.

What about the Activity (NCI-H460 [8]) of the same molecule?
Its Activity is 5.7%.

And the Activity (NCI-H460 [9])?
The Activity was 7.9%.

And the inhibition (NCI-H460 [10])?
Its inhibition is “Active”.

And the inhibition (NCI-H460 [11])?
Its inhibition is “Active”.

And the Activity (A549 [12])?
Its Activity is 56.7%.

What about the Activity [13] of the same molecule?
The Activity was “Non-Toxic”.

What about the viability at 40 µM (NCI-H460 [14]) of the same molecule?
Its viability at 40 µM is 48.4%.

And the inhibition (NCI-H460 [3])?
Its inhibition is “Dose-dependent effect”.

What about the IC50 (NCI-H460 [3]) of the same molecule?
The IC50 was 38 µM.

What about the inhibition (NCI-H460 [15]) of the same molecule?
The inhibition was “Active”.

And the Activity (A549 [16])?
Its Activity is “Dose-dependent effect”.

What about the Activity (A549 [17]) of the same molecule?
Its Activity is 11.9%.

What about the Activity (A549 [18]) of the same molecule?
Its Activity is 0.8%.

And the inhibition (NCI-H460 [19])?
Its inhibition is “Active”.

What about the Activity (NCI-H460 [20]) of the same molecule?
The Activity was “Active”.

And the Activity (A549 [21])?
The Activity was 3%.

And the inhibition (A549 [4])?
The inhibition was “Active”.

What about the Activity (A549 [22]) of the same molecule?
Its Activity is 83.2%.

What about the Activity (A549 [23]) of the same molecule?
The Activity was 8%.

And the inhibition (NCI-H460 [24])?
Its inhibition is “Active”.

And the Activity (NCI-H460 [25])?
Its Activity is 18.6%.

And the inhibition (A549 [5])?
The inhibition was “Dose-dependent effect”.

What about the IC50 (A549 [5]) of the same molecule?
The IC50 was 41.6 µM.

What about the Activity (NCI-H460 [26]) of the same molecule?
The Activity was 9.6%.

What about the inhibition (NCI-H460 [27]) of the same molecule?
Its inhibition is “Active”.

What about the inhibition (NCI-H460 [28]) of the same molecule?
Its inhibition is “Active”.

What about the inhibition (NCI-H460 [29]) of the same molecule?
Its inhibition is “Active”.

What about the Activity (NCI-H460 [30]) of the same molecule?
Its Activity is 46.6%.

What about the Activity (A549 [31]) of the same molecule?
Its Activity is 1.9%.

What about the inhibition (NCI-H460 [6]) of the same molecule?
Its inhibition is “Active”.

And the Activity (A549 [32])?
Its Activity is 34.5%.

And the Activity (NCI-H460 [33])?
The Activity was 66.7%.

And the Activity (NCI-H460 [34])?
The Activity was “Dose-dependent effect”.

And the viability at 40 µM (A549 [35])?
The viability at 40 µM was 51%.

What about the Activity (NCI-H460 [36]) of the same molecule?
Its Activity is 6.8%.

What about the Activity (NCI-H460 [37]) of the same molecule?
The Activity was 38.1%.
